Test results from US12433803B2, “Methods and compositions for studying cell evolution” (THE BROAD INSTITUTE, INC., priority 2017, dated 2025).

System: D458 medulloblastoma cells
Test: Drug resistance experiment: barcoded D458 cells passaged in JQ1, barcode sequencing and deconvolution
Format: cell-based
Details: FIG. 4; barcoded cells passaged with JQ1 (2 uM per method b225); same barcodes recovered in replicate experiments
Description: Drug resistance experiments—D458 and JQ1. Barcoded D458 medulloblastoma cells (fingerprint verified) cells were treated with DMSO or JQ1 (obtained from Drs Bradner and Qi) at a concentration of 2 uM in multiple replicate plates (5×DMSO and 5× each drug concentration). 4 million cells of barcoded D458 cells were plated in each replicate plate in presence of DMSO or JQ1. Barcoded JQ1 cells were also frozen in 10% DMSO/FCS for future retrievable. In addition, cells were also collected for DNA-extraction to determine barcode representation at the early-time point. Cells were retreated with compound every 3-4 days. Cells were counted, passaged or split every 3-4 days, maintaining a minimum representation of 4 million cells. Cells were cultured in DMSO or JQ1 for a total of […] prior to harvesting for DNA extraction for barcode sequencing and deconvolution.
Library deconvolution. Genomic DNA was extracted and prepared for deep sequencing as in (JJ 2017). Libraries were sequenced to a minimum depth of 18 million reads, corresponding to a barcode coverage of >80×.

Compound: Cc1sc2c(c1C)C(c1ccc(Cl)cc1)=N[C@@H](CC(=O)OC(C)(C)C)c1nnc(C)n1-2 [JQ1]
- Percentage of barcodes that persist following treatment with JQ1: 5%
